# Results as given in the supplement of paper PMC11208160.
# Experiment: recombinant barcode read abundance after kanamycin selection (control-corrected) (log10(CPM+1)); higher = more efficient recombination; sequences stand for … in AGTGCAGAGAAAATCGGCCAGTTTTCTCTGCCTGCAGTCCGCATGCCGT…AGATTTATGCAGCGGACTGCCTTTCTCCCAAAGTGATAAACCGGACAGTATCATGGACCGGTTTTCCCGGTAATCCGTATTTGCAAGGTTGGTTTCACT; site = the 11-nt target
# Method in brief: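 Recombination efficiency comes from barcode counts at recombinant junctions, converted to counts per million, averaged and corrected against the control. Values appear as log10(CPM+1). They were obtained from a pooled E. coli screen in which each oligo paired a target with an IS621 bridge RNA target-binding loop, and cells were plated in duplicate on chloramphenicol/ampicillin LB agar or on chloramphenicol/ampicillin/kanamycin with 0.1 mM IPTG.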
# 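Further: IS621 recombinase and bridge RNA in Escherichia coli cells.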
row,Sequence,recombinant barcode read abundance (log10)
1,GTCGGTACTTGGGTTCTAACCTGTTGCCT (site GTCGGCACTAG),0.0645
2,GTCGGTACTTGGGTTCTAACCTGTTGCCT (site GTCGGGACTAG),0.0319
3,GTCGGTACTTGGGTTCTAACCTGTTGCCT (site GTCGGTACTAG),0.952
4,GTCGTCACTTGGGTTCTAACCTGTTGCCT (site GTCGTCACTAG),0.334
5,GTCGTCACTTGGGTTCTAACCTGTTGCCT (site GTCGTCCCTAG),0.0716
6,GTCGTCACTTGGGTTCTAACCTGTTGCCT (site GTCGTCGCTAG),0.15
7,GTCGTCACTTGGGTTCTAACCTGTTGCCT (site GTCGTCTCTAG),0.0772
8,GTCGTCCCTTGGGTTCTAACCTGTTGCCT (site GTCGTCACTAG),0.0509
9,GTCGTCCCTTGGGTTCTAACCTGTTGCCT (site GTCGTCCCTAG),0.315
10,GTCGTCCCTTGGGTTCTAACCTGTTGCCT (site GTCGTCGCTAG),0.0602
11,GTCGTCCCTTGGGTTCTAACCTGTTGCCT (site GTCGTCTCTAG),0.0914
12,GTCGTCTCTTGGGTTCTAACCTGTTGCCT (site GTCGTCACTAG),0.0143
13,GTCGTCTCTTGGGTTCTAACCTGTTGCCT (site GTCGTCCCTAG),0.463
14,GTCGTCTCTTGGGTTCTAACCTGTTGCCT (site GTCGTCGCTAG),0.136
15,GTCGTCTCTTGGGTTCTAACCTGTTGCCT (site GTCGTCTCTAG),1.65
16,GTCGTTACTTGGGTTCTAACCTGTTGCCT (site GTCGTTACTAG),0.339
17,GTCGTTACTTGGGTTCTAACCTGTTGCCT (site TAGCAATCTTA),0.22
18,GTCGTTCCTTGGGTTCTAACCTGTTGCCT (site GTAGTTCCTAG),0.535
19,GTCGTTCCTTGGGTTCTAACCTGTTGCCT (site GTCGTTCCTAG),0.153
20,GTCTAGGCTTGGGTTCTAACCTGTTGCTG (site GCCGAGGCTCA),0.242
21,GTCTAGGCTTGGGTTCTAACCTGTTGCTG (site GTCTAGGCTCA),0.876
22,GTCTATACTTGGGTTCTAACCTGTTGCCA (site GTCTATACTTG),0.571

row,Sequence,recombinant barcode read abundance (log10)
1,GTCTATACTTGGGTTCTAACCTGTTGCCA (site TTCTAGACTTG),0.0838
2,GTCTATACTTGGGTTCTAACCTGTTGCCT (site GTATATACTAG),0.168
3,GTCTATACTTGGGTTCTAACCTGTTGCCT (site GTCTATACTAG),0.987
4,GTCTATACTTGGGTTCTAACCTGTTGCCT (site GTGTATACTAG),0.0645
5,GTCTATACTTGGGTTCTAACCTGTTGCCT (site GTTTATACTAG),0.311
6,GTCTATGCTTGGGTTCTAACCTGTTGCGT (site GTCTAAGCTAA),0.0746
7,GTCTATGCTTGGGTTCTAACCTGTTGCGT (site GTCTATGCTAC),0.0203
8,GTCTCCTCTTGGGTTCTAACCTGTTGCCT (site GTCACCTCTAG),0.0265
9,GTCTCCTCTTGGGTTCTAACCTGTTGCCT (site GTCCCCTCTAG),2.26
10,GTCTCCTCTTGGGTTCTAACCTGTTGCCT (site GTCGCCTCTAG),0.0306
11,GTCTCCTCTTGGGTTCTAACCTGTTGCCT (site GTCTCCTCTAG),1.62
12,GTCTCTACTTGGGTTCTAACCTGTTGCCT (site GCCTCTTCTAG),0.0271
13,GTCTCTACTTGGGTTCTAACCTGTTGCCT (site GTCTCTACTAG),0.221
14,GTGAACTCTTGGGTTCTAACCTGTTGCTG (site GTGAACTCTCA),2.33
15,GTGAACTCTTGGGTTCTAACCTGTTGCTG (site GTGATCCCTCA),0.0703
16,GTGACTGCTTGGGTTCTAACCTGTTGCGT (site CACTAGACTCG),0.0198
17,GTGACTGCTTGGGTTCTAACCTGTTGCGT (site GTGACTGCTAC),1.46
18,GTGAGGTCTTGGGTTCTAACCTGTTGCAT (site GTGAGGTCTAA),0.46
19,GTGAGGTCTTGGGTTCTAACCTGTTGCAT (site GTGAGGTCTAC),0.709
20,GTGAGGTCTTGGGTTCTAACCTGTTGCAT (site GTGAGGTCTAG),0.375
21,GTGAGGTCTTGGGTTCTAACCTGTTGCAT (site GTGAGGTCTAT),2.71
22,GTGAGGTCTTGGGTTCTAACCTGTTGCGT (site GTGAGGTCTAA),0.231

row,Sequence,recombinant barcode read abundance (log10)
1,GTGAGGTCTTGGGTTCTAACCTGTTGCGT (site GTGAGGTCTAC),2.08
2,GTGAGGTCTTGGGTTCTAACCTGTTGCGT (site GTGAGGTCTAG),0.586
3,GTGAGGTCTTGGGTTCTAACCTGTTGCGT (site GTGAGGTCTAT),1.69
4,GTGCAAACTTGGGTTCTAACCTGTTGCCT (site GTGCAAACTAG),1.23
5,GTGCAAACTTGGGTTCTAACCTGTTGCCT (site GTGCACACTTG),0.0968
6,GTGCTTACTTGGGTTCTAACCTGTTGCCT (site GAGCTTACTAG),0.0771
7,GTGCTTACTTGGGTTCTAACCTGTTGCCT (site GCGCTTACTAG),0.0397
8,GTGCTTACTTGGGTTCTAACCTGTTGCCT (site GGGCTTACTAG),0.0436
9,GTGCTTACTTGGGTTCTAACCTGTTGCCT (site GTGCTTACTAG),0.538
10,GTGGCTTCTTGGGTTCTAACCTGTTGCCT (site GAGGCTTCTAG),0.128
11,GTGGCTTCTTGGGTTCTAACCTGTTGCCT (site GCGGCTTCTAG),0.248
12,GTGGCTTCTTGGGTTCTAACCTGTTGCCT (site GGGGCTTCTAG),0.132
13,GTGGCTTCTTGGGTTCTAACCTGTTGCCT (site GTGGCTTCTAG),0.389
14,GTGTACCCTTGGGTTCTAACCTGTTGCGG (site GTGTACCCTAC),1.94
15,GTGTACCCTTGGGTTCTAACCTGTTGCGG (site GTGTACCCTCC),1.93
16,GTGTACCCTTGGGTTCTAACCTGTTGCGG (site GTGTACCCTGC),0.161
17,GTGTACCCTTGGGTTCTAACCTGTTGCGG (site GTGTACCCTTC),0.253
18,GTGTAGTCTTGGGTTCTAACCTGTTGCCG (site GTGTAGGCTCT),0.254
19,GTGTAGTCTTGGGTTCTAACCTGTTGCCG (site GTGTAGTCTCG),1.19
20,GTGTCACCTTGGGTTCTAACCTGTTGCCT (site GTGTCAACTAG),0.205
21,GTGTCACCTTGGGTTCTAACCTGTTGCCT (site GTGTCACCTAG),1.52
22,GTGTCACCTTGGGTTCTAACCTGTTGCCT (site GTGTCAGCTAG),0.00534

row,Sequence,recombinant barcode read abundance (log10)
1,GTGTCACCTTGGGTTCTAACCTGTTGCCT (site GTGTCATCTAG),0.091
2,GTGTCTCCTTGGGTTCTAACCTGTTGCCT (site ATGTCTCCTAG),0.233
3,GTGTCTCCTTGGGTTCTAACCTGTTGCCT (site CTGTCTCCTAG),0.103
4,GTGTCTCCTTGGGTTCTAACCTGTTGCCT (site GTGTCTCCTAG),0.962
5,GTGTCTCCTTGGGTTCTAACCTGTTGCCT (site TTGTCTCCTAG),0.22
6,GTGTGAGCTTGGGTTCTAACCTGTTGCCG (site GTACGAGCTCG),0.269
7,GTGTGAGCTTGGGTTCTAACCTGTTGCCG (site GTGTGAGCTCG),1.74
8,GTGTGTCCTTGGGTTCTAACCTGTTGCCT (site GTGTGTACTAG),0.0295
9,GTGTGTCCTTGGGTTCTAACCTGTTGCCT (site GTGTGTCCTAG),1.31
10,GTGTGTCCTTGGGTTCTAACCTGTTGCCT (site GTGTGTGCTAG),0.155
11,GTGTGTCCTTGGGTTCTAACCTGTTGCCT (site GTGTGTTCTAG),0.108
12,GTTACCGCTTGGGTTCTAACCTGTTGCCT (site GTAACCGCTAG),0.602
13,GTTACCGCTTGGGTTCTAACCTGTTGCCT (site GTCACCGCTAG),0.345
14,GTTACCGCTTGGGTTCTAACCTGTTGCCT (site GTGACCGCTAG),0.0865
15,GTTACCGCTTGGGTTCTAACCTGTTGCCT (site GTTACCGCTAG),1.64
16,GTTACGTCTTGGGTTCTAACCTGTTGCTT (site AGTACGTCTAA),0.115
17,GTTACGTCTTGGGTTCTAACCTGTTGCTT (site GTTACGTCTAA),0.285
18,GTTAGACCTTGGGTTCTAACCTGTTGCCT (site GTTAGACCTAG),0.949
19,GTTAGACCTTGGGTTCTAACCTGTTGCCT (site TGCCTCTCTTA),0.0193
20,GTTCAGCCTTGGGTTCTAACCTGTTGCCT (site GTCGAGCCTAG),0.0107
